TGI and GI50 data for 8 compounds are collected here from PubChem BioAssay (NCI).

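In this assay, cells in 96-well plates receive the compound at five concentrations for 48 hours. Endpoints are linearly interpolated between the surrounding concentrations. Here, GI50 denotes the concentration required for 50% inhibition of growth. TGI is the concentration that stops growth completely.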 Where only a bound is given, the exact number is not on record here.

Common to all, as to test: NCI-60 cell line screen, 48 h
Assay [1] concerns A498 renal.
Assay [2] relates to CCRF-CEM leukemia.
Assay [3] deals with HCC-2998 colon.
The subject of assay [4] is HOP-62 NSCLC.
The subject of assay [5] is HT29 colon.
The test system of assay [6] is K-562 leukemia.
Assay [7] has as its system NCI/ADR-RES ovarian.
Assay [8] concerns OVCAR-4 ovarian.
The subject of assay [9] is OVCAR-5 ovarian.
Assay [10] concerns SNB-75 CNS.

Take `Nc1ncnc2c1nnn2C1OC(CO)C(O)C1O` (stereo not drawn): the TGI in assay [1] stood at 5.68 µM; in assay [2], 27.9 µM; in [3], 5.32 µM; in [4], 5.78 µM; in assay [5] it was 21.9 µM; in assay [6], 13.9 µM. The TGI in assay [7] came to 9.32 µM; in assay [8], 8.48 µM; in [9] it was 15.4 µM; in [10], 16.9 µM.

Consider `Cc1cc(I)cc(CN(C)CCCN2CCCCC2)c1O`, for which the GI50 is 19.8 µM in assay [1]; 18.6 µM in assay [2]; 14 µM in assay [3]; 13.7 µM in assay [4]; 4.46 µM in [5]; 11.1 µM in assay [6]. Also, the GI50 in [7] was 21.9 µM; in assay [8], 32.7 µM; in [9] it was 21 µM; in assay [10], 16.6 µM. In addition, the TGI was found to be 38.3 µM in assay [1]; 43.4 µM in assay [2]; 27.2 µM in assay [3]; 27 µM in assay [4]; 16.1 µM in assay [5]; 23.1 µM in [6]. In addition, the TGI was 59 µM in assay [7], above 100 µM in assay [8], 59.4 µM in assay [9] and 34.8 µM in [10].

Turning to `CN(C(=O)c1ccc(C(F)(F)F)cc1)c1ccc(Oc2ccc3c(c2)cc(C(=O)N2CCN(Cc4ccc(OC(F)F)cc4)CC2)n3C)nc1`, the GI50 in assay [1] was 0.729 µM; in [3] it was above 100 µM; in assay [5], 33.2 µM; in assay [6], below 0.01 µM; in [7] it was 0.437 µM; in assay [8], below 0.01 µM. The GI50 in assay [9] is above 100 µM; in [10], 11.7 µM. Further, the TGI in assay [1], in assay [2], in [3], in assay [4], in [5] and in [6] was above 100 µM each time. Moreover, the TGI was above 100 µM in assay [7], above 49.7 µM in assay [8], above 100 µM in assay [9] and above 84 µM in assay [10].

As for `COc1ccc(/C=C(/C#N)n2nnc3cccc(F)c32)cc1`, the GI50 in assay [1] was 1.22 µM; in assay [2] it was 0.949 µM; in [3], 1.83 µM; in assay [4], 3.25 µM; in [5], 0.41 µM; in assay [6] it was 0.352 µM. The GI50 in assay [7] was 0.371 µM; in assay [8], 2 µM; in [9] it was 1.82 µM; in [10], 0.206 µM. The TGI in assay [1] is 4.1 µM; in assay [2], above 100 µM; in assay [3], 7.14 µM; in assay [4], above 100 µM; in [5], above 100 µM; in assay [6], above 100 µM. The TGI in assay [7] was 3.37 µM; in [8] it was above 100 µM; in [9], 4.56 µM; in assay [10] it was 0.638 µM.

`CCN(CC)c1ccc(-c2cc(-c3cc(OC)c(OC)c(OC)c3)nc(N3CCOCC3)c2C#N)cc1`: the GI50 in [1] was 2.88 µM; in assay [2], 0.611 µM; in assay [3] it was 1.97 µM; in [4] it was 2.24 µM; in [5], 0.532 µM; in assay [6] it was 1 µM. In addition, the GI50 is 0.709 µM in assay [7], 7.33 µM in assay [8], 1.42 µM in assay [9] and 1.02 µM in [10]. In addition, the TGI is 39.5 µM in assay [1]; above 44.5 µM in assay [2]; 11.1 µM in assay [3]; 16.5 µM in assay [4]; 8.87 µM in [5]; above 19.9 µM in [6]. Also, the TGI is 27.8 µM in [7], above 100 µM in assay [8], above 68.2 µM in assay [9] and 12 µM in [10].

With `ClCc1cccc(Cn2cnc3ncnc(Cl)c32)c1`, the GI50 in assay [1] is 18.4 µM; in assay [2], 6.91 µM; in assay [3] it was 1.68 µM; in assay [4], 2.17 µM; in assay [5], 2.89 µM; in assay [6], 16.6 µM. The GI50 is 2.78 µM in [7], 4.17 µM in [8], 6.74 µM in [9] and 1.84 µM in assay [10]. For the same compound, the TGI in assay [1] is 35.9 µM; in [2] it was 22.2 µM; in assay [3], 3.25 µM; in [4], 3.99 µM; in assay [5], above 100 µM; in [6], 48.1 µM. In addition, the TGI in assay [7] turned out to be 9.75 µM; in assay [8] it was 16 µM; in [9], 19.8 µM; in assay [10], 3.53 µM.

In the case of `O=S(=O)(CCn1c(Sc2ccccc2)c(Sc2ccccc2)c2ccccc21)c1ccccc1`, the TGI in [1], in [2], in assay [3], in [4], in assay [5] and in [6] was above 100 µM in each case. Further, the TGI in assay [7], in [8], in assay [9] and in assay [10] was above 100 µM in each case.

For the compound `Fc1cc2[nH]ncc2c2c3c(c(-c4cn[nH]c4)nc12)CCCC3`, the GI50 in assay [1] is 0.365 µM; in assay [2], 1.13 µM; in [3], 1.52 µM; in assay [4] it was 1.6 µM; in assay [5] it was 1.24 µM; in assay [6] it was 1.55 µM. The GI50 was 2.38 µM in assay [7], 1.69 µM in assay [8], 2.13 µM in assay [9] and 0.994 µM in assay [10]. The TGI in assay [1] was 1.64 µM; in assay [2], above 100 µM; in [3], 5.75 µM; in assay [4], above 21 µM; in assay [5], above 100 µM; in [6], above 100 µM. The TGI in assay [7] is 7.9 µM; in assay [8], 8.14 µM; in assay [9], 12.2 µM; in assay [10], 2.32 µM.
